Test results: EP0629585A1, “Process of inhibition oxalate scale formation” (MONSANTO EUROPE S.A., priority 1993, dated 1994)
Counter-ions that a name gives are not always drawn.

Experiment: Calcium oxalate scale inhibition test under conditions similar to an alkaline pulp bleaching process
Conditions: dosage 25 ppm active acid, 45°C, pH 9.5, 100 ppm calcium, 80 ppm oxalates
Description: The preferred oxalate scale inhibiting compound of the invention, i.e. the compound of formula I above, was tested alongside various members of the known "DEQUEST" family of phosphonate inhibitors under conditions similar to those encountered in an alkaline pulp bleaching process. The word "DEQUEST" is a Registered Trade Mark.
The temperature of the aqueous solution used in the tests was maintained at 45°C and the pH at 9.5 (adjusted using an ammonium hydroxide/ammonium chloride buffering agent). Tests times of 2.5, 8 and 24 hours were deployed, and concentrations of 100 ppm of calcium and 80 ppm of oxalates were present in the aqueous solution. A dosage rate of inhibitor of 25 ppm was used in each test. The "DEQUEST" scale inhibitors used in the tests were designated A to E and were as follows: • A - DEQUEST 2066 (diethylenetriaminepenta(methylenephosphonic acid) or its salts) • B - DEQUEST 2046 (ethylenediaminetetra(methylenephosphonic acid) or its salts) • C - DEQUEST 2000 (aminotri(methylenephosphonic acid) or its salts) • D - DEQUEST 2010 (1-hydroxyethylene(1,1 diphosphonic acid)) • E - DEQUEST 2056 (hexamethylenediaminetetra(methylenephosphonic acid) or its salts). TABLE
The results above express the scale-inhibiting effects of the various inhibitors in terms of percentage inhibition.

O=P(O)(O)CN(CCCN(CP(=O)(O)O)CP(=O)(O)O)CCN(CCCN(CP(=O)(O)O)CP(=O)(O)O)CP(=O)(O)O [(I)]
Percentage Inhibition (time 2.5 hrs): 100 | Percentage Inhibition (time 8 hrs): 92 | Percentage Inhibition (time 24 hrs): 49

O=P(O)(O)CN(CP(=O)(O)O)CP(=O)(O)O [C, aminotri(methylenephosphonic acid) or its salts]
Percentage Inhibition (time 2.5 hrs): 51

CC(O)(P(=O)(O)O)P(=O)(O)O [D, 1-hydroxyethylene(1,1 diphosphonic acid)]
Percentage Inhibition (time 2.5 hrs): 49

diethylenetriaminepenta(methylenephosphonic acid) or its salts
Percentage Inhibition (time 2.5 hrs): 64 | Percentage Inhibition (time 8 hrs): 38 | Percentage Inhibition (time 24 hrs): 24

ethylenediaminetetra(methylenephosphonic acid) or its salts [B]
Percentage Inhibition (time 2.5 hrs): 50 | Percentage Inhibition (time 8 hrs): 23 | Percentage Inhibition (time 24 hrs): 14

hexamethylenediaminetetra(methylenephosphonic acid) or its salts
Percentage Inhibition (time 2.5 hrs): 34
